Biological target: T1, BRD4(BD1) (Homo sapiens, UniProt O60885)
T1 construct: 42-168 was cloned, expressed, and purified to; His; made in house
Test: BRD4 AlphaLisa Binding Assay
Source text: IC50 Measurements for Inhibitors Using BRD4 AlphaLisa Binding Assay

**Q.** With `Cn1cc(C(=O)NCc2ccc(S(C)(=O)=O)cc2)c2cc[nH]c2c1=O` [Example 92] as the molecule, how does the IC50 read?
**A.** Its IC50 is 8.4 µM.

**Q.** With `Cn1cc(C(=O)NCc2cccs2)c2cc[nH]c2c1=O` [Example 262] as the molecule, how does the IC50 read?
**A.** The IC50 was 3.3 µM.

**Q.** `CN(CC1CCN(Cc2ccccc2Cl)CC1)C(=O)c1cn(C)c(=O)c2[nH]ccc12` [Example 198] was tested. Which IC50 did it give?
**A.** The IC50 was 1.1 µM.

**Q.** `CC(c1ccccc1)N(C)C(=O)c1cn(C)c(=O)c2[nH]ccc12` (stereo not shown) [Example 128] was tested. Which IC50 did it give?
**A.** The IC50 was 16 µM.

**Q.** `COc1ccc(CNC(=O)c2cn(C)c(=O)c3[nH]ccc23)cc1` [Example 261] was tested. Which IC50 did it give?
**A.** Its IC50 is 2.7 µM.

**Q.** For `Cn1cc(C(=O)N[C@H](C(=O)O)c2ccccc2)c2cc[nH]c2c1=O` [Example 96], which IC50 is on record?
**A.** The IC50 was 5 µM.

**Q.** How did the IC50 turn out when `Cn1cc(C(=O)NCC2CCOCC2)c2cc[nH]c2c1=O` [Example 101] was run?
**A.** Its IC50 is 17 µM.

**Q.** With `COC(=O)[C@@H](NC(=O)c1cn(C)c(=O)c2[nH]ccc12)C1CCCCC1` [Example 93] as the molecule, how does the IC50 read?
**A.** The IC50 was 2.9 µM.

**Q.** With `CC(NC(=O)c1cn(C)c(=O)c2[nH]ccc12)c1ccc(Cl)cc1` (stereo not shown) [Example 126] as the molecule, how does the IC50 read?
**A.** The IC50 was 3.2 µM.

**Q.** With `COc1cccc(CN2CCC(N(C)C(=O)c3cn(C)c(=O)c4[nH]ccc34)CC2)c1` [Example 222] as the molecule, how does the IC50 read?
**A.** The IC50 was 16 µM.

**Q.** How did the IC50 turn out when `C[C@@H](NC(=O)c1cn(C)c(=O)c2[nH]ccc12)c1ccccc1` [Example 256, (R)-6-methyl-7-oxo-N-(1-phenylethyl)-6,7-dihydro-1Hpyrrolo[2,3-c]pyridine-4-carboxamide] was run?
**A.** Its IC50 is 3.8 µM.

**Q.** Which IC50 does the source give for `Cn1cc(C(=O)N2CCC(c3ccccn3)CC2)c2cc[nH]c2c1=O` [Example 55, 6-methyl-4-[4-(2-pyridyl)piperidine-1-carbonyl]-1H-pyrrolo[2,3-c]pyridin-7-one] here?
**A.** Its IC50 is 9.5 µM.

**Q.** How did the IC50 turn out when `Cn1cc(C(=O)N2CCC(C#N)CC2)c2cc[nH]c2c1=O` [Example 64, 1-(6-methyl-7-oxo-1H-pyrrolo[2,3-c]pyridine-4-carbonyl)piperidine-4-carbonitrile] was run?
**A.** The IC50 was 8 µM.

**Q.** How did the IC50 turn out when `COc1ccccc1C(C)NC(=O)c1cn(C)c(=O)c2[nH]ccc12` (stereo not shown) [Example 119] was run?
**A.** The IC50 was 1.2 µM.

**Q.** How did the IC50 turn out when `COC[C@@H](NC(=O)c1cn(C)c(=O)c2[nH]ccc12)c1ccccc1` [Example 95] was run?
**A.** Its IC50 is 11 µM.

**Q.** With `Cn1cc(C(=O)N2CCC(Cc3cccnc3)CC2)c2cc[nH]c2c1=O` [Example 46, 6-methyl-4-[4-(3-pyridylmethyl)piperidine-1-carbonyl]-1H-pyrrolo[2,3-c]pyridin-7-one] as the molecule, how does the IC50 read?
**A.** Its IC50 is 6.4 µM.

**Q.** `CC(C)C(NC(=O)c1cn(C)c(=O)c2[nH]ccc12)c1ccccc1` (stereo not shown) [Example 123] was tested. Which IC50 did it give?
**A.** Its IC50 is 11 µM.

**Q.** How did the IC50 turn out when `Cn1cc(C(=O)N2CCC(n3cnc4ccccc43)CC2)c2cc[nH]c2c1=O` [Example 50, 4-[4-(benzimidazol-1-yl)piperidine-1-carbonyl]-6-methyl-1H-pyrrolo[2,3-c]pyridin-7-one] was run?
**A.** The IC50 was 16 µM.

**Q.** For `Cn1cc(C(=O)NCCN2CCOCC2)c2cc[nH]c2c1=O` [Example 8, 6-methyl-N-(2-morpholinoethyl)-7-oxo-1H-pyrrolo[2,3-c]pyridine-4-carboxamide], which IC50 is on record?
**A.** The IC50 was 4.9 µM.

**Q.** How did the IC50 turn out when `CN(C(=O)c1cn(C)c(=O)c2[nH]ccc12)C1CCN(Cc2ccccc2C#N)CC1` [Example 215] was run?
**A.** The IC50 was 3.8 µM.

**Q.** Which IC50 does the source give for `Cn1cc(C(=O)NCCc2ccccc2)c2cc[nH]c2c1=O` [Example 258] here?
**A.** Its IC50 is 0.8 µM.

**Q.** `CCOC(C)CNC(=O)c1cn(C)c(=O)c2[nH]ccc12` (stereo not shown) [Example 117] was tested. Which IC50 did it give?
**A.** The IC50 was 4 µM.

**Q.** `CC(NC(=O)c1cn(C)c(=O)c2[nH]ccc12)c1ccccc1F` (stereo not shown) [Example 116] was tested. Which IC50 did it give?
**A.** Its IC50 is 4.3 µM.

**Q.** Which IC50 does the source give for `Cn1cc(C(=O)N2CCC(C(F)(F)F)CC2)c2cc[nH]c2c1=O` [Example 57, 6-methyl-4-[4-(trifluoromethyl)piperidine-1-carbonyl]-1H-pyrrolo[2,3-c]pyridin-7-one] here?
**A.** Its IC50 is 4.1 µM.

**Q.** With `Cc1ccccc1CCNC(=O)c1cn(C)c(=O)c2[nH]ccc12` [Example 127] as the molecule, how does the IC50 read?
**A.** Its IC50 is 1.2 µM.

**Q.** For `Cn1cc(C(=O)NCCCN2CCOCC2)c2cc[nH]c2c1=O` [Example 31, 6-methyl-N-(3-morpholinopropyl)-7-oxo-1H-pyrrolo[2,3-c]pyridine-4-carboxamide], which IC50 is on record?
**A.** The IC50 was 17 µM.

**Q.** Which IC50 does the source give for `Cn1cc(C(=O)NCC2CCCCN2C(=O)OC(C)(C)C)c2cc[nH]c2c1=O` (stereo not shown) [Example 132] here?
**A.** The IC50 was 13 µM.

**Q.** For `C[C@@H](NC(=O)c1cn(C)c(=O)c2[nH]ccc12)C1CCCCC1` [Example 94], which IC50 is on record?
**A.** Its IC50 is 3.1 µM.

**Q.** Which IC50 does the source give for `Cn1cc(C(=O)NC2CCCCc3ccccc32)c2cc[nH]c2c1=O` (stereo not shown) [Example 265, 6-methyl-7-oxo-N-(6,7,8,9-tetrahydro-5Hbenzo[7]annulen-5-yl)-6,7-dihydro-1H-pyrrolo[2,3-c]pyridine-4-carboxamide] here?
**A.** Its IC50 is 5.3 µM.

**Q.** For `CC(C)c1cccc(N2CCC(N(C)C(=O)c3cn(C)c(=O)c4[nH]ccc34)CC2)c1` [Example 179, N-[1-(3-isopropylphenyl)-4-piperidyl]-N,6-dimethyl-7-oxo-1H-pyrrolo[2,3-c]pyridine-4-carboxamide], which IC50 is on record?
**A.** Its IC50 is 2.1 µM.

**Q.** With `CN1CCN(CCNC(=O)c2cn(C)c(=O)c3[nH]ccc23)CC1` [Example 32, 6-methyl-N-[2-(4-methylpiperazin-1-yl)ethyl]-7-oxo-1H-pyrrolo[2,3-c]pyridine-4-carboxamide] as the molecule, how does the IC50 read?
**A.** Its IC50 is 9.8 µM.

From patent publication US10258603B2 (priority 2014, dated 2019)
